Source: ChEMBL document CHEMBL1201862, “PubChem BioAssay data set” (2004)
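Grown in 96-well plates, cells were treated for 48 hours with each compound at five concentrations. Insufficient inhibition: endpoint recorded as highest concentration tested. GI50 marks 50% less growth.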 Active and inactive are the calls of the source. No stated cut-off is given here; in the data, active = GI50 up to about 1.1 µM and inactive = higher.

Columns and labels:
Assay in all cases: NCI anticancer screen, dose series, 48 h
A498 = tested on: A498
A549 = tested on: A549
DU-145 = tested on: DU-145
HCC 2998 = tested on: HCC 2998
HOP-62 = tested on: HOP-62
HOP-92 = tested on: HOP-92
HT-29 = tested on: HT-29
Hs-578T = tested on: Hs-578T
IGROV-1 = tested on: IGROV-1
K562 = tested on: K562
MDA-N = tested on: MDA-N
Malme-3M = tested on: Malme-3M
NCI-H23 = tested on: NCI-H23
SK-MEL-5 = tested on: SK-MEL-5
SNB-75 = tested on: SNB-75
SW-620 = tested on: SW-620
TK-10 = tested on: TK-10
U-251 = tested on: U-251
UO-31 = tested on: UO-31
NCI/ADR-RES = tested on: NCI/ADR-RES

| SMILES | GI50 (A498) | GI50 (A549) | GI50 (DU-145) | GI50 (HCC 2998) | GI50 (HOP-62) | GI50 (HOP-92) | GI50 (HT-29) | GI50 (Hs-578T) | GI50 (IGROV-1) | GI50 (K562) | GI50 (MDA-N) | GI50 (Malme-3M) | GI50 (NCI-H23) | GI50 (SK-MEL-5) | GI50 (SNB-75) | GI50 (SW-620) | GI50 (TK-10) | GI50 (U-251) | GI50 (UO-31) | GI50 (NCI/ADR-RES) |
| --- | --- | --- | --- | --- | --- | --- | --- | --- | --- | --- | --- | --- | --- | --- | --- | --- | --- | --- | --- | --- |
| Cc1c(C#N)c(N)n(C2OC(CO)C(O)C(O)C2O)c(=S)c1C#N (stereo not given) | > 100 µM (inactive) | > 100 µM (inactive) | > 100 µM (inactive) | > 100 µM (inactive) | > 100 µM (inactive) | > 100 µM (inactive) | > 100 µM (inactive) | > 100 µM (inactive) | > 100 µM (inactive) | > 100 µM (inactive) | > 100 µM (inactive) | > 100 µM (inactive) | > 100 µM (inactive) | > 100 µM (inactive) | > 100 µM (inactive) | > 100 µM (inactive) | > 100 µM (inactive) | > 100 µM (inactive) | > 100 µM (inactive) |  |
| CC(=O)Nc1nc2c(=O)c3ccccc3sc2s1 | > 100 µM (inactive) | > 100 µM (inactive) | > 100 µM (inactive) |  | > 100 µM (inactive) |  | > 100 µM (inactive) | > 100 µM (inactive) | > 100 µM (inactive) | > 100 µM (inactive) | > 100 µM (inactive) |  | > 100 µM (inactive) | > 100 µM (inactive) | > 100 µM (inactive) |  | 87.3 µM (inactive) |  | > 100 µM (inactive) | > 100 µM (inactive) |
| CCOC(=O)[C@H](CO)NC1=C(Cl)C(=O)c2c(O)ccc(O)c2C1=O |  | > 10 µM (inactive) | > 10 µM (inactive) | > 10 µM (inactive) | > 10 µM (inactive) | > 10 µM (inactive) | 5.33 µM (inactive) | > 10 µM (inactive) | > 10 µM (inactive) | > 10 µM (inactive) | > 10 µM (inactive) | > 10 µM (inactive) | > 10 µM (inactive) | > 10 µM (inactive) | > 10 µM (inactive) | > 10 µM (inactive) | > 10 µM (inactive) | > 10 µM (inactive) |  | > 10 µM (inactive) |
| COc1ccc(NC(=S)NC(=O)c2ccc3c(c2)Sc2ccccc2O3)c([N+](=O)[O-])c1 | 18.5 µM (inactive) | 42.1 µM (inactive) | 26.9 µM (inactive) |  | 33 µM (inactive) | 19.2 µM (inactive) | 76.6 µM (inactive) | 14 µM (inactive) | 18.7 µM (inactive) | 64.1 µM (inactive) | 44.5 µM (inactive) | 14.4 µM (inactive) | 83.2 µM (inactive) | 20.6 µM (inactive) | 8.36 µM (inactive) | 0.387 µM (active) | 17.9 µM (inactive) | 20.2 µM (inactive) | 25.6 µM (inactive) | 33.6 µM (inactive) |
| CCc1ccc2c(c1)CC1(C2)Cc2cc3c(cc2C1)C(=O)CC3 (stereo not given) | 10.9 µM (inactive) | 24.2 µM (inactive) |  | 10.5 µM (inactive) | 19.8 µM (inactive) | 14.7 µM (inactive) | 6.31 µM (inactive) | > 100 µM (inactive) | 17.3 µM (inactive) | 3.85 µM (inactive) | 2.25 µM (inactive) | 14.9 µM (inactive) | 22.9 µM (inactive) | 5.01 µM (inactive) |  |  | 38.6 µM (inactive) | 18.8 µM (inactive) | 43.9 µM (inactive) | 40.5 µM (inactive) |
| NC(CC1=CCC=CC1)C(=O)O (stereo not given) | > 100 µM (inactive) | 74.5 µM (inactive) | > 100 µM (inactive) | > 100 µM (inactive) | > 100 µM (inactive) | > 100 µM (inactive) | 61.9 µM (inactive) | 50.6 µM (inactive) | 67.8 µM (inactive) | 28.9 µM (inactive) | 59.2 µM (inactive) |  | > 100 µM (inactive) | > 100 µM (inactive) | 99.5 µM (inactive) | > 100 µM (inactive) | > 100 µM (inactive) | 64.4 µM (inactive) | > 100 µM (inactive) |  |
| Cc1cc2c(cc1-c1cc3c(cc1C)C(C(C)C)=C(O)C(=O)/C3=C\Nc1c(C)n(C)n(-c3ccccc3)c1=O)/C(=C/Nc1c(C)n(C)n(-c3ccccc3)c1=O)C(=O)C(O)=C2C(C)C | > 100 µM (inactive) | 40.1 µM (inactive) | > 100 µM (inactive) |  | 70.1 µM (inactive) | 78.2 µM (inactive) | > 100 µM (inactive) | > 100 µM (inactive) | 51.1 µM (inactive) | > 100 µM (inactive) | > 100 µM (inactive) | > 100 µM (inactive) | > 100 µM (inactive) | 49.9 µM (inactive) | > 100 µM (inactive) | 61.9 µM (inactive) |  | 28.2 µM (inactive) | > 100 µM (inactive) | > 100 µM (inactive) |
| CN(C)/C=N\c1nncc2[nH]nnc12 | > 100 µM (inactive) | > 100 µM (inactive) | > 100 µM (inactive) |  | > 100 µM (inactive) |  | > 100 µM (inactive) | > 100 µM (inactive) | > 100 µM (inactive) | > 100 µM (inactive) | > 100 µM (inactive) |  | > 100 µM (inactive) | > 100 µM (inactive) | > 100 µM (inactive) | > 100 µM (inactive) | > 100 µM (inactive) | > 100 µM (inactive) | > 100 µM (inactive) | > 100 µM (inactive) |
| OC(c1ccccc1)(c1cccnc1)C(O)(c1ccccc1)c1cccnc1 (stereo not given) |  | > 100 µM (inactive) | > 100 µM (inactive) |  |  | > 100 µM (inactive) | > 100 µM (inactive) | > 100 µM (inactive) | > 100 µM (inactive) | > 10 µM (inactive) | > 100 µM (inactive) | > 100 µM (inactive) | > 100 µM (inactive) | > 100 µM (inactive) | > 100 µM (inactive) | > 100 µM (inactive) | > 100 µM (inactive) | > 100 µM (inactive) | > 100 µM (inactive) | > 100 µM (inactive) |
| CC(C)N1CC2CN(Cc3ccccc3)CC(C1)C2=O |  | > 100 µM (inactive) | > 100 µM (inactive) | > 100 µM (inactive) | > 100 µM (inactive) | > 100 µM (inactive) | > 100 µM (inactive) | > 100 µM (inactive) | > 100 µM (inactive) | > 100 µM (inactive) | > 100 µM (inactive) | > 100 µM (inactive) | > 100 µM (inactive) |  | > 100 µM (inactive) | > 100 µM (inactive) | > 100 µM (inactive) | > 100 µM (inactive) | > 100 µM (inactive) | > 100 µM (inactive) |
| Cc1c2c3cc(O)ccc3nc-2n(C)c2ccccc12 |  | 0.938 µM (active) | 3.08 µM (inactive) | 2.77 µM (inactive) | 1.5 µM (inactive) | 1.93 µM (inactive) | 1.1 µM (active) | 2.9 µM (inactive) | 2.17 µM (inactive) | 0.818 µM (active) | 2.07 µM (inactive) | 1.48 µM (inactive) | 2.24 µM (inactive) | 1.09 µM (active) | 2.45 µM (inactive) | 0.497 µM (active) | 2.98 µM (inactive) | 0.838 µM (active) | 0.857 µM (active) | 0.957 µM (active) |
